Fold induction and IC50 data for 29 compounds are collected here from patent US20180273531A1, “PYRIMIDINE COMPOUND AND MEDICAL USE THEREOF” (Japan Tobacco Inc., priority 2004, published 2018).

Format in all cases: cell-based
Experiment [1] has as its system ACHN cells or HT-29 cells. Put plainly: Cell cycle analysis (flow cytometry, CycleTEST PLUS). Particulars: test substance less than 10 μM, 24 hrs, compared to DMSO, n=2, read-out: CELL RATIO OF G0/G1 PHASE. How it is done: ACHN cells or HT-29 cells were cultured in a 6 well plate at 2.5×10^5 cells/1.8 mL/well for 24 hrs, then a test substance (less than 10 μM) dissolved in DMSO was added. After 24 hrs, cells were detached using trypsin-EDTA and the DNA content of single cell was analyzed by flow cytometry method using a CycleTEST PLUS (BECKTON DICKINSON) kit, and the proportion of the cells in the G0/G1 phase·S phase·G2/M phase was calculated. As a control, DMSO was used and the test was performed with n=2.

The subject of experiment [2] is Renal cancer cell line ACHN cell. Put plainly: Growth inhibitory effect against cancer cell lines (3H-thymidine uptake), ACHN. Particulars: Homo sapiens, ACHN. Put shortly: (§1)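 Cells seeded at 1.0×10^4/well, grown 24 hrs, then exposed to compound in DMSO for 18 hrs before 6 hrs pulse with ^3H-thymidine (0.25 μCi/well). Harvested cell-incorporated radioactivity counted; IC50 is the concentration halving uptake versus DMSO control, triplicate.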

Experiment [3] has as its system colorectal cancer cell line HT-29 cells. Put plainly: Growth inhibitory effect against cancer cell lines (3H-thymidine uptake), HT-29. Particulars: Homo sapiens, HT-29, inhibition of 3H-thymidine uptake; test substance 18 hrs, then 3H-thymidine 6 hrs; triplicate. The procedure, abridged: as §1
In the next experiment the test system is p15 protein. Put plainly: Evaluation of p15 induction activity (Western blotting). Particulars: test substance 0.1 μM, 24 hrs, ACHN cells or HT-29 cells, compared to DMSO, n=2. Put shortly: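 p15 protein quantified by densitometry of anti-p15 Western blots (10 μg protein per lane, mean of n=2). Samples came from HT-29 or ACHN cells given 0.1 μM compound for 24 h after 24 h plating, with DMSO as control.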

For the next experiment, the system named is p27 protein. Put plainly: p27 protein induction test (Western blotting). Particulars: test substance (0.1 1M), 24 hrs, ACHN cells or HT-29 cells, compared to DMSO, n=2. Put shortly: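 ACHN or HT-29 cells grown 24 h, then treated with test substance at […] (DMSO) for 24 h. Lysates normalised by protein content and probed by Western blot with anti-p27 antibody. Band density quantified by densitometer against DMSO control, n=2 averaged.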

`CCc1ccc(Nc2cc(=O)n(C)c3c2c(=O)n(-c2ccccc2)c(=O)n3-c2ccccc2)cc1` [Example 1-21]: in experiment [1], the fold induction is not below 1.2.
Turning to `CNC(=O)c1ccc(-n2c(=O)n(C3CC3)c(=O)c3c(Nc4ccc(I)cc4F)n(C)c(=O)c(C)c32)cc1` [Example 4-92], the figures for the IC50 in experiment [2] and in experiment [3] were 0.01 to 0.1 µM and less than 0.01 µM, respectively. In addition, the fold induction at 0.1 µM in the experiment on p15 protein and with p27 protein was not below 1.5 each time.
As for `Cc1c(=O)n(C)c(Nc2ccc(I)cc2F)c2c(=O)n(C3CC3)c(=O)n(-c3ccc(C(=O)N(C)C)cc3)c12` [Example 4-93], the IC50 was 0.01 to 0.1 µM in experiment [2] and less than 0.01 µM in experiment [3]. Besides, the fold induction at 0.1 µM in the experiment on p15 protein and with p27 protein was not below 1.5 throughout.
With `C=C(C)c1ccc(Nc2c3c(=O)n(C4CC4)c(=O)n(-c4cccc(NC(C)=O)c4)c3c(C)c(=O)n2C)c(F)c1` [Example 4-97], the IC50 in experiment [2] was 0.01 to 0.1 µM; in experiment [3], less than 0.01 µM. In addition, the fold induction at 0.1 µM in the experiment on p15 protein and in the experiment with p27 protein was not below 1.5 each time.
Regarding `CC(=O)Nc1cccc(-n2c(=O)n(C3CC3)c(=O)c3c(Nc4ccc(C(C)C)cc4F)n(C)c(=O)c(C)c32)c1` [Example 4-98], the IC50 was 0.01 to 0.1 µM in experiment [2] and less than 0.01 µM in experiment [3]. Further, the fold induction at 0.1 µM in the experiment with p15 protein and in the experiment on p27 protein was not below 1.5 each time.
As to `Cc1c(=O)n(C)c(Nc2ccc(I)cc2F)c2c(=O)n(C3CC3)c(=O)n(-c3ccc(F)c(NS(C)(=O)=O)c3)c12` [Example 4-101], the IC50 in experiment [2] was 0.01 to 0.1 µM; in experiment [3] it was less than 0.01 µM. For the same compound, the fold induction at 0.1 µM in the experiment on p15 protein and in the experiment on p27 protein was not below 1.5 in each case.
In the case of `C#Cc1ccc(Nc2c3c(=O)n(C4CC4)c(=O)n(-c4ccc(F)c(NC(C)=O)c4)c3c(C)c(=O)n2C)c(F)c1` [Example 4-102], the 50% inhibitory concentration (IC50) in experiment [2] fell in the range of 0.1 to 1 µM; in experiment [3], 0.01 to 0.1 µM. Also, the fold induction at 0.1 µM in the experiment on p15 protein and in the experiment with p27 protein was not below 1.5 in each case.
For the compound `Cc1c(=O)n(C)c(Nc2ccc(I)cc2F)c2c(=O)n(C3CC3)c(=O)n(-c3ccc4nc(O)[nH]c4c3)c12` [Example 4-103], the IC50 is 0.1 to 1 µM in experiment [2] and less than 0.01 µM in experiment [3]. In addition, the fold induction at 0.1 µM in the experiment on p15 protein and in the experiment on p27 protein was not below 1.5 throughout.
Regarding `CSc1ccc(Nc2c3c(=O)n(C4CC4)c(=O)n(-c4cccc(NC(C)=O)c4)c3c(C)c(=O)n2C)c(F)c1` [Example 4-105], the IC50 in experiment [2] is 0.01 to 0.1 µM; in experiment [3], less than 0.01 µM. Moreover, the fold induction at 0.1 µM in the experiment on p15 protein and in the experiment with p27 protein was not below 1.5 each time.
For the compound `CSc1ccc(Nc2c3c(=O)n(C4CC4)c(=O)n(-c4cccc(NS(C)(=O)=O)c4)c3c(C)c(=O)n2C)c(F)c1` [Example 4-106], the values for the IC50 in experiment [2] and in experiment [3] were 0.01 to 0.1 µM and less than 0.01 µM, respectively. Besides, the fold induction at 0.1 µM in the experiment with p15 protein and with p27 protein was not below 1.5 each time.
Turning to `Cc1c(=O)n(C)c(Nc2ccc(I)cc2F)c2c(=O)n(C3CC3)c(=O)n(-c3ccc4nc[nH]c4c3)c12` [Example 4-107], the results for the IC50 in experiment [2] and in experiment [3] were 0.01 to 0.1 µM and less than 0.01 µM, respectively. Moreover, the fold induction at 0.1 µM in the experiment on p15 protein and in the experiment on p27 protein was not below 1.5 throughout.
`Cc1c(=O)n(C)c(Nc2ccc(I)cc2F)c2c(=O)n(C3CC3)c(=O)n(-c3cccc(N4C(=O)CNC4=O)c3)c12` [Example 4-108]: the figures for the IC50 in experiment [2] and in experiment [3] were 0.01 to 0.1 µM and less than 0.01 µM, respectively. Also, the fold induction at 0.1 µM with p15 protein and in the experiment with p27 protein was not below 1.5 each time.
`Cc1c(=O)n(C)c(Nc2ccc(I)cc2F)c2c(=O)n(C3CC3)c(=O)n(-c3cccc(N4CC(=O)NC4=O)c3)c12` [Example 4-109]: the IC50 was 0.01 to 0.1 µM in experiment [2] and less than 0.01 µM in experiment [3]. Also, the fold induction at 0.1 µM in the experiment on p15 protein and with p27 protein was not below 1.5 each time.
For `Cc1c(=O)n(C)c(Nc2ccc(I)cc2F)c2c(=O)n(C3CC3)c(=O)n(-c3cccc(NC4=NCCO4)c3)c12` [Example 4-110], the IC50 was 0.01 to 0.1 µM in experiment [2] and less than 0.01 µM in experiment [3]. Besides, the fold induction at 0.1 µM in the experiment on p15 protein and with p27 protein was not below 1.5 each time.
`Cc1c(=O)n(C)c(Nc2ccc(I)cc2F)c2c(=O)n(C3CC3)c(=O)n(-c3cccc(NC=O)c3)c12` [Example 4-113]: the IC50 in experiment [2] and in experiment [3] was less than 0.01 µM each time. Further, the fold induction at 0.1 µM with p15 protein and in the experiment with p27 protein was not below 1.5 each time.
Consider `Cc1c(=O)n(C)c(Nc2ccc(I)cc2F)c2c(=O)n(C3CC3)c(=O)n(-c3cccc(N4CCNS4(=O)=O)c3)c12` [Example 4-114], for which the IC50 is 0.01 to 0.1 µM in experiment [2] and less than 0.01 µM in experiment [3]. The fold induction at 0.1 µM in the experiment on p15 protein and with p27 protein was not below 1.5 throughout.
Regarding `Cc1c(=O)n(C)c(Nc2ccc(I)cc2F)c2c(=O)n(C3CC3)c(=O)n(-c3ccc4cn[nH]c4c3)c12` [Example 4-115], the half-maximal inhibitory concentration (IC50) in experiment [2] was 0.01 to 0.1 µM; in experiment [3], less than 0.01 µM. The fold induction at 0.1 µM in the experiment with p15 protein and in the experiment on p27 protein was not below 1.5 each time.
For `Cc1c(=O)n(C)c(Nc2ccc(I)cc2F)c2c(=O)n(C3CC3)c(=O)n(-c3ccc(NS(C)(=O)=O)c(Cl)c3)c12` [Example 4-116], the results for the IC50 in experiment [2] and in experiment [3] were 0.1 to 1 µM and less than 0.01 µM, respectively. The fold induction at 0.1 µM in the experiment with p15 protein and in the experiment on p27 protein was not below 1.5 in each case.
For the compound `Cc1cc(-n2c(=O)n(C3CC3)c(=O)c3c(Nc4ccc(I)cc4F)n(C)c(=O)c(C)c32)ccc1NS(C)(=O)=O` [Example 4-117], the values for the IC50 in experiment [2] and in experiment [3] were 0.1 to 1 µM and less than 0.01 µM, respectively. Besides, the fold induction at 0.1 µM with p15 protein and with p27 protein was not below 1.5 each time.
For `Cc1c(=O)n(C)c(Nc2ccc(I)cc2F)c2c(=O)n(C3CC3)c(=O)n(-c3ccc4c(c3)NC(=O)CO4)c12` [Example 4-118], the values for the concentration for half-maximal inhibition (IC50) in experiment [2] and in experiment [3] were 0.01 to 0.1 µM and less than 0.01 µM, respectively. Further, the fold induction at 0.1 µM with p15 protein and with p27 protein was not below 1.5 throughout.
For the compound `Cc1c(=O)n(C)c(Nc2ccc(I)cc2F)c2c(=O)n(C)c(=O)n(-c3ccc(S(N)(=O)=O)cc3)c12` [Example 4-119], the IC50 in experiment [2] is 0.01 to 0.1 µM; in experiment [3] it was less than 0.01 µM. Moreover, the fold induction at 0.1 µM with p15 protein and in the experiment with p27 protein was not below 1.5 in each case.
On to `CSc1ccc(Nc2c3c(=O)n(C4CC4)c(=O)n(-c4cccc(NS(N)(=O)=O)c4)c3c(C)c(=O)n2C)c(F)c1` [Example 4-120], for which the half-inhibitory concentration (IC50) in experiment [2] is 0.01 to 0.1 µM; in experiment [3], less than 0.01 µM. The fold induction at 0.1 µM in the experiment on p15 protein and in the experiment on p27 protein was not below 1.5 throughout.
With `Cc1c(=O)n(C)c(Nc2ccc(I)cc2F)c2c(=O)n(C3CC3)c(=O)n(-c3ccc4[nH]nnc4c3)c12` [Example 4-121], the concentration for half-maximal inhibition (IC50) was 0.01 to 0.1 µM in experiment [2] and less than 0.01 µM in experiment [3]. In addition, the fold induction at 0.1 µM in the experiment on p15 protein and with p27 protein was not below 1.5 throughout.
Consider `Cc1c(=O)n(C)c(Nc2ccc(I)cc2F)c2c(=O)n(C3CC3)c(=O)n(-c3cccc(N4CCN(C)CC4=O)c3)c12` [Example 4-122], for which the values for the IC50 in experiment [2] and in experiment [3] were 0.01 to 0.1 µM and less than 0.01 µM, respectively. Moreover, the fold induction at 0.1 µM in the experiment with p15 protein and in the experiment with p27 protein was not below 1.5 in each case.
`Cc1c(=O)n(C)c(Nc2ccc(I)cc2F)c2c(=O)n(C3CC3)c(=O)n(-c3ccc4c(c3)NC(=O)CC4)c12` [Example 4-123]: the IC50 in experiment [2] was 0.1 to 1 µM; in experiment [3], less than 0.01 µM. Besides, the fold induction at 0.1 µM with p15 protein and with p27 protein was not below 1.5 in each case.
On to `Cc1c(=O)n(C)c(Nc2ccc(I)cc2F)c2c(=O)n(C3CC3)c(=O)n(-c3cccc(N4CCNC4=O)c3)c12` [Example 4-124], for which the half-inhibitory concentration (IC50) was 0.01 to 0.1 µM in experiment [2] and less than 0.01 µM in experiment [3]. The fold induction at 0.1 µM in the experiment with p15 protein and in the experiment on p27 protein was not below 1.5 in each case.
As to `Cc1c(=O)n(C)c(Nc2ccc(I)cc2F)c2c(=O)n(C3CC3)c(=O)n(-c3cccc(N4CCOC4=O)c3)c12` [Example 4-125], the IC50 in experiment [2] and in experiment [3] was less than 0.01 µM in each case. The fold induction at 0.1 µM with p15 protein and in the experiment on p27 protein was not below 1.5 each time.
Consider `Cc1c(=O)n(C)c(Nc2ccc(I)cc2F)c2c(=O)n(C3CC3)c(=O)n(-c3cccc(S(N)(=O)=O)c3)c12` [Example 4-127], for which the figures for the IC50 in experiment [2] and in experiment [3] were 0.01 to 0.1 µM and less than 0.01 µM, respectively. Further, the fold induction at 0.1 µM with p15 protein and in the experiment on p27 protein was not below 1.5 in each case.
Regarding `Cc1c(=O)n(C)c(Nc2ccc(I)cc2F)c2c(=O)n(C3CC3)c(=O)n(-c3ccc4c(c3)NC(=O)C4(C)C)c12` [Example 4-128], the values for the IC50 in experiment [2] and in experiment [3] were 0.01 to 0.1 µM and less than 0.01 µM, respectively. In addition, the fold induction at 0.1 µM with p15 protein and in the experiment on p27 protein was not below 1.5 in each case.
